Measured values from the supplement of paper PMC10627819.

Legend:
S. pneumoniae D39V [1] = assay: fitness (endpoint OD595 vs no drug) (fraction); higher = more growth
Procedure, shortened: (§1)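 Bacterial growth was followed in 384-well plates seeded at OD595 0.01, with 30 µl per well, or 55 µl for S. pneumoniae, in TSB, LB Lennox or CY at 37 °C. OD595 was read every 30 min for 14 h, and each reading had the first reading subtracted as background. Fitness is the background-corrected optical density at entry into stationary phase divided by the robust mean of the no-drug control wells. This ratio is capped at 1.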

S. aureus Newman [2] = assay: as above
Procedure, shortened: as §1

S. aureus DSM 20231 [3] = assay: as above
Procedure, shortened: as §1

B. subtilis 168 [4] = assay: as above
Procedure, shortened: as §1

S. pneumoniae D39V [5] = assay: Bliss interaction score (quartile over a dose matrix) (fitness difference); higher = more antagonism (negative = synergy)
Procedure, shortened: (§2)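 Fitness was defined as normalised growth: OD595 at the start of stationary phase divided by the plate's robust no-drug mean and capped at 1. Single-drug fitness was inferred from combination measurements. The Bliss score is observed fitness minus the product of the single-drug values, summarised by quartiles across technical, biological and donor/recipient replicates.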

S. aureus Newman [6] = assay: as above
Procedure, shortened: as §2

S. aureus DSM 20231 [7] = assay: as above
Procedure, shortened: as §2

B. subtilis 168 [8] = assay: as above
Procedure, shortened: as §2
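Wherever Bliss interaction score (quartile over a dose matrix) is given: first quartile when negative (synergy) and third quartile when positive (antagonism).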

CO/N=C(\C(=O)N[C@@H]1C(=O)N2C(C(=O)O)=C(COC(C)=O)CS[C@H]12)c1csc(N)n1 [Cefotaxime] + CN(N=O)C(=O)N[C@@H](C=O)[C@@H](O)[C@H](O)[C@H](O)CO [Streptozotocin]
fitness
Settings	first compound 0.0018 µg/mL	first compound 0.0035 µg/mL	first compound 0.007 µg/mL	first compound 0.078 µg/mL	first compound 0.156 µg/mL	first compound 0.312 µg/mL
S. aureus DSM 20231 [3], partner 0.15 µg/mL	–	–	–	0.691	0.653	0.609
S. aureus DSM 20231 [3], partner 0.3 µg/mL	–	–	–	0.612	0.617	0.614
S. aureus DSM 20231 [3], partner 0.6 µg/mL	–	–	–	0.552	0.564	0.521
S. aureus Newman [2], partner 0.15 µg/mL	–	–	–	0.641	0.476	0.253
S. aureus Newman [2], partner 0.3 µg/mL	–	–	–	0.539	0.389	0.133
S. aureus Newman [2], partner 0.6 µg/mL	–	–	–	0.403	0.204	0.0516
S. pneumoniae D39V [1], partner 1.2 µg/mL	0.957	0.963	0.889	–	–	–
S. pneumoniae D39V [1], partner 2.4 µg/mL	0.97	0.964	0.775	–	–	–
S. pneumoniae D39V [1], partner 4.8 µg/mL	0.978	0.938	0.861	–	–	–

fitness, one replicate
Settings	partner 0.15 µg/mL	partner 0.3 µg/mL	partner 0.6 µg/mL
B. subtilis 168 [4], first compound 0.00775 µg/mL	0.767	0.832	0.787
B. subtilis 168 [4], first compound 0.0155 µg/mL	0.721	0.743	0.715
B. subtilis 168 [4], first compound 0.031 µg/mL	0.526	0.518	0.502
B. subtilis 168 [4], first compound 0.5 µg/mL	0.34	0.342	0.347
B. subtilis 168 [4], first compound 1 µg/mL	0.132	0.136	0.146
B. subtilis 168 [4], first compound 2 µg/mL	0.0874	0.126	0.183
S. aureus DSM 20231 [3], first compound 0.039 µg/mL	0.756	0.675	0.551
S. aureus Newman [2], first compound 0.625 µg/mL	0.0252	0.0161	0
S. aureus Newman [2], first compound 1.25 µg/mL	0.023	0.0017	0
S. aureus Newman [2], first compound 2.5 µg/mL	0.0355	0.0302	0

Settings	Bliss interaction score
B. subtilis 168 [8]	0.0848
S. aureus DSM 20231 [7]	-0.0448
S. aureus Newman [6]	-0.0599
S. pneumoniae D39V [5]	0.0325

CO/N=C(\C(=O)N[C@@H]1C(=O)N2C(C(=O)O)=C(COC(C)=O)CS[C@H]12)c1csc(N)n1 [Cefotaxime] + CN[C@@H]1[C@H](O)[C@H](NC)[C@H]2O[C@@]3(O)C(=O)C[C@@H](C)O[C@H]3O[C@@H]2[C@H]1O [Spectinomycin]
fitness
Settings	partner 2 µg/mL	partner 4 µg/mL	partner 8 µg/mL	partner 16 µg/mL
B. subtilis 168 [4], first compound 0.5 µg/mL	0.234	0.139	0.0989	–
B. subtilis 168 [4], first compound 1 µg/mL	0.11	0.0503	0.0323	–
B. subtilis 168 [4], first compound 2 µg/mL	0.0973	0.0906	0.091	–
S. aureus DSM 20231 [3], first compound 0.078 µg/mL	–	0.791	0.747	0.714
S. aureus DSM 20231 [3], first compound 0.156 µg/mL	–	0.704	0.754	0.711
S. aureus DSM 20231 [3], first compound 0.312 µg/mL	–	0.68	0.694	0.596
S. aureus Newman [2], first compound 0.078 µg/mL	–	0.697	0.716	0.686
S. aureus Newman [2], first compound 0.156 µg/mL	–	0.582	0.59	0.503
S. aureus Newman [2], first compound 0.312 µg/mL	–	0.272	0.201	0.0958
S. pneumoniae D39V [1], first compound 0.0018 µg/mL	–	0.985	0.944	0.9
S. pneumoniae D39V [1], first compound 0.0035 µg/mL	–	0.97	0.944	0.847
S. pneumoniae D39V [1], first compound 0.007 µg/mL	–	0.834	0.852	0.8

one replicate
Settings	fitness
B. subtilis 168 [4], first compound 0.00775 µg/mL, partner 2 µg/mL	0.794
B. subtilis 168 [4], first compound 0.00775 µg/mL, partner 4 µg/mL	0.796
B. subtilis 168 [4], first compound 0.00775 µg/mL, partner 8 µg/mL	0.816
B. subtilis 168 [4], first compound 0.0155 µg/mL, partner 2 µg/mL	0.671
B. subtilis 168 [4], first compound 0.0155 µg/mL, partner 4 µg/mL	0.748
B. subtilis 168 [4], first compound 0.0155 µg/mL, partner 8 µg/mL	0.571
B. subtilis 168 [4], first compound 0.031 µg/mL, partner 2 µg/mL	0.521
B. subtilis 168 [4], first compound 0.031 µg/mL, partner 4 µg/mL	0.519
B. subtilis 168 [4], first compound 0.031 µg/mL, partner 8 µg/mL	0.258
S. aureus DSM 20231 [3], first compound 0.039 µg/mL, partner 4 µg/mL	0.72
S. aureus DSM 20231 [3], first compound 0.039 µg/mL, partner 8 µg/mL	0.747
S. aureus DSM 20231 [3], first compound 0.039 µg/mL, partner 16 µg/mL	0.707
S. aureus DSM 20231 [3], first compound 0.078 µg/mL, partner 32 µg/mL	0.597
S. aureus DSM 20231 [3], first compound 0.078 µg/mL, partner 64 µg/mL	0.0453
S. aureus DSM 20231 [3], first compound 0.156 µg/mL, partner 32 µg/mL	0.632
S. aureus DSM 20231 [3], first compound 0.156 µg/mL, partner 64 µg/mL	0.0727
S. aureus DSM 20231 [3], first compound 0.312 µg/mL, partner 32 µg/mL	0.583
S. aureus DSM 20231 [3], first compound 0.312 µg/mL, partner 64 µg/mL	0.0287
S. aureus Newman [2], first compound 0.078 µg/mL, partner 32 µg/mL	0.328
S. aureus Newman [2], first compound 0.078 µg/mL, partner 64 µg/mL	0.0751
S. aureus Newman [2], first compound 0.156 µg/mL, partner 32 µg/mL	0.0776
S. aureus Newman [2], first compound 0.156 µg/mL, partner 64 µg/mL	0.0848
S. aureus Newman [2], first compound 0.312 µg/mL, partner 32 µg/mL	0.0307
S. aureus Newman [2], first compound 0.312 µg/mL, partner 64 µg/mL	0.0805
S. aureus Newman [2], first compound 0.625 µg/mL, partner 4 µg/mL	0.0066
S. aureus Newman [2], first compound 0.625 µg/mL, partner 8 µg/mL	0.0296
S. aureus Newman [2], first compound 0.625 µg/mL, partner 16 µg/mL	0.021
S. aureus Newman [2], first compound 1.25 µg/mL, partner 4 µg/mL	0.0276
S. aureus Newman [2], first compound 1.25 µg/mL, partner 8 µg/mL	0.0141
S. aureus Newman [2], first compound 1.25 µg/mL, partner 16 µg/mL	0.0089
S. aureus Newman [2], first compound 2.5 µg/mL, partner 4 µg/mL	0.0608
S. aureus Newman [2], first compound 2.5 µg/mL, partner 8 µg/mL	0.0355
S. aureus Newman [2], first compound 2.5 µg/mL, partner 16 µg/mL	0.0355

Settings	Bliss interaction score
B. subtilis 168 [8]	-0.0623
S. aureus DSM 20231 [7]	0.0658
S. aureus Newman [6]	-0.0972
S. pneumoniae D39V [5]	0.108
